For eight molecules, solubility results are on record in patent US20130012432A1, “Peptides for Treatment of Obesity” (Novo Nordisk A/S, priority 2010, published 2013).

Values after ≈ are worked out from the molar mass of the structure shown. Positions of bridges follow the written chain, without caps; N, C: chain ends. Non-standard residues stand in square brackets, D forms with d. Residues, ends and D or L forms follow the SMILES beside them. Groups on a side chain read outwards from the residue. *: point of attachment. Palmitoyl(16-(5-tetrazolyl)) = O=C(CCCCCCCCCCCCCCCc1nnn[nH]1)*; Lys(CH2CO2H)2 = N[C@@H](CCCCN(CC(=O)O)CC(=O)O)C(=O)O; C18 diacid = O=C(O)CCCCCCCCCCCCCCCCC(=O)*; C16 diacid = O=C(O)CCCCCCCCCCCCCCC(=O)*; Orn = NCCC[C@H](N)C(=O)O; Dab = NCC[C@H](N)C(=O)O; Dap = NC[C@H](N)C(=O)O; AEEA = NCCOCCOCC(=O)O

A short description of this data set: physchem. Here is the method: From a stock solution in vehicle, either H2O or 10 mM phosphate, containing 1 mg (as weighed) compound per ml, 8-11 aliquots are withdrawn and pH-adjusted individually with HCl/NaOH, to cover the whole pH range.

For orientation: solubility means the concentration that dissolves in the medium under given conditions. A higher solubility goes with a readily soluble substance. Regarding `CC(=O)N[C@H]1CCCNC(=O)C[C@@H](C(=O)N2CCC[C@H]2C(=O)N2CCC[C@H]2C(=O)N[C@@H](CCCNC(=N)N)C(=O)N[C@@H](CCC(=O)O)C(=O)N[C@@H](CCCCN(CC(=O)O)CC(=O)O)C(=O)N[C@@H](CCCCNC(=O)COCCOCCNC(=O)CCCCCCCCCCCCCCCc2nnn[nH]2)C(N)=O)NC(=O)[C@H](Cc2c[nH]c3ccccc23)NC(=O)[C@H](CCCNC(=N)N)NC(=O)[C@@H](Cc2ccccc2)NC(=O)[C@H](Cc2c[nH]cn2)NC1=O` [Example 19, Ac-c[Orn-His-D-Phe-Arg-Trp-Asp]-Pro-Pro-Arg-Glu-Lys(biscarboxymethyl)-Lys[(2-{2-[16-(tetrazol-5-yl)hexadecanoylamino]ethoxy}ethoxy)acetyl]-NH2] (Ac-[Orn]H[dF]RWDPPRE[Lys(CH2CO2H)2]K([AEEA-Palmitoyl(16-(5-tetrazolyl))])-NH2; lactam 1-6), the solubility by setting is: (pH 6.3, Solubility Conc.) 26 µM (≈ 57.2 µg/mL); (pH 6.7, Solubility Conc.) 38 µM (≈ 83.6 µg/mL); (pH 6.9, Solubility Conc.) 70 µM (≈ 154 µg/mL); (pH 7.2, Solubility Conc.) 433 µM (≈ 953 µg/mL); (pH 7.3, Solubility Conc.) 447 µM (≈ 984 µg/mL); (pH 7.5, Solubility Conc.) 474 µM (≈ 1040 µg/mL). Also, the solubility by setting is: (pH 7.7, Solubility Conc.) 517 µM (≈ 1140 µg/mL); (pH 7.9, Solubility Conc.) 441 µM (≈ 970 µg/mL).
Take `CC(=O)N[C@H]1CCNC(=O)C[C@@H](C(=O)N2CCC[C@H]2C(=O)N2CCC[C@H]2C(=O)N[C@@H](CCCNC(=N)N)C(=O)N[C@@H](CC(=O)O)C(=O)N[C@@H](CCCCN(CC(=O)O)CC(=O)O)C(=O)N[C@@H](CCCCNC(=O)COCCOCCNC(=O)CCCCCCCCCCCCCCCc2nnn[nH]2)C(N)=O)NC(=O)[C@H](Cc2c[nH]c3ccccc23)NC(=O)[C@H](CCCNC(=N)N)NC(=O)[C@@H](Cc2ccccc2)NC(=O)[C@H](Cc2c[nH]cn2)NC1=O` [Example 25, Ac-c[Dab-His-D-Phe-Arg-Trp-Asp]-Pro-Pro-Arg-Asp-Lys(biscarboxymethyl)-Lys[(2-{2-[16-(tetrazol-5-yl)hexadecanoylamino]ethoxy}ethoxy)acetyl]-NH2] (Ac-[Dab]H[dF]RWDPPRD[Lys(CH2CO2H)2]K([AEEA-Palmitoyl(16-(5-tetrazolyl))])-NH2; lactam 1-6): the solubility amounted to 24 µM (≈ 52.1 µg/mL) (pH 6, Solubility Conc.); 34 µM (≈ 73.9 µg/mL) (pH 6.3, Solubility Conc.); 133 µM (≈ 289 µg/mL) (pH 7, Solubility Conc.); 439 µM (≈ 954 µg/mL) (pH 7.3, Solubility Conc.); 472 µM (≈ 1030 µg/mL) (pH 7.4, Solubility Conc.); 479 µM (≈ 1040 µg/mL) (pH 7.5, Solubility Conc.). Moreover, the solubility is 471 µM (≈ 1020 µg/mL) (pH 7.7, Solubility Conc.) and 498 µM (≈ 1080 µg/mL) (pH 8, Solubility Conc.).
As to `CC(=O)N[C@H]1CC(=O)NCC[C@@H](C(=O)N2CCC[C@H]2C(=O)N2CCC[C@H]2C(=O)N[C@@H](CCCNC(=N)N)C(=O)N[C@@H](CC(=O)O)C(=O)N[C@@H](CCCCN(CC(=O)O)CC(=O)O)C(=O)N[C@@H](CCCCNC(=O)COCCOCCNC(=O)CCCCCCCCCCCCCCCc2nnn[nH]2)C(N)=O)NC(=O)[C@H](Cc2c[nH]c3ccccc23)NC(=O)[C@H](CCCNC(=N)N)NC(=O)[C@@H](Cc2ccccc2)NC(=O)[C@H](Cc2c[nH]cn2)NC1=O` [Example 30, Ac-c[Asp-His-D-Phe-Arg-Trp-Dab]-Pro-Pro-Arg-Asp-Lys(biscarboxymethyl)-Lys[(2-{2-[16-(tetrazol-5-yl)hexadecanoylamino]ethoxy}ethoxy)acetyl]-NH2] (Ac-DH[dF]RW[Dab]PPRD[Lys(CH2CO2H)2]K([AEEA-Palmitoyl(16-(5-tetrazolyl))])-NH2; lactam 1-6), the solubility is, setting by setting: (pH 5.9, Solubility Conc.) 24 µM (≈ 52.1 µg/mL); (pH 6.4, Solubility Conc.) 37 µM (≈ 80.4 µg/mL); (pH 7, Solubility Conc.) 144 µM (≈ 313 µg/mL); (pH 7.3, Solubility Conc.) 377 µM (≈ 819 µg/mL); (pH 7.5, Solubility Conc.) 478 µM (≈ 1040 µg/mL); (pH 7.6, Solubility Conc.) 493 µM (≈ 1070 µg/mL). Also, the solubility (pH 7.9, Solubility Conc.) came to 497 µM (≈ 1080 µg/mL).
With `CC(=O)N[C@H]1CNC(=O)C[C@@H](C(=O)N2CCC[C@H]2C(=O)N2CCC[C@H]2C(=O)N[C@@H](CCCNC(=N)N)C(=O)N[C@@H](CC(=O)O)C(=O)N[C@@H](CCCCN(CC(=O)O)CC(=O)O)C(=O)N[C@@H](CCCCNC(=O)COCCOCCNC(=O)CCCCCCCCCCCCCCCc2nnn[nH]2)C(N)=O)NC(=O)[C@H](Cc2c[nH]c3ccccc23)NC(=O)[C@H](CCCNC(=N)N)NC(=O)[C@@H](Cc2ccccc2)NC(=O)[C@H](Cc2c[nH]cn2)NC1=O` [Example 36, Ac-c[Dap-His-D-Phe-Arg-Trp-Asp]-Pro-Pro-Arg-Asp-Lys(biscarboxymethyl)-Lys[(2-{2-[16-(tetrazol-5-yl)hexadecanoylamino]ethoxy}ethoxy)acetyl]-NH2] (Ac-[Dap]H[dF]RWDPPRD[Lys(CH2CO2H)2]K([AEEA-Palmitoyl(16-(5-tetrazolyl))])-NH2; lactam 1-6), the solubility by setting is: (pH 5.7, Solubility Conc.) 17 µM (≈ 36.7 µg/mL); (pH 6, Solubility Conc.) 18 µM (≈ 38.9 µg/mL); (pH 6.5, Solubility Conc.) 28 µM (≈ 60.4 µg/mL); (pH 7.1, Solubility Conc.) 87 µM (≈ 188 µg/mL); (pH 7.4, Solubility Conc.) 261 µM (≈ 563 µg/mL); (pH 7.5, Solubility Conc.) 488 µM (≈ 1050 µg/mL). This molecule returned a solubility (pH 7.6, Solubility Conc.) of 504 µM (≈ 1090 µg/mL); a solubility (pH 7.9, Solubility Conc.) of 514 µM (≈ 1110 µg/mL); a solubility (pH 8.1, Solubility Conc.) of 505 µM (≈ 1090 µg/mL).
Take `CC(=O)N[C@H]1CCCNC(=O)C[C@@H](C(=O)N2CCC[C@H]2C(=O)N2CCC[C@H]2C(=O)N[C@@H](CCCNC(=N)N)C(=O)N[C@@H](CCC(=O)O)C(=O)N[C@@H](CCCCN(CC(=O)O)CC(=O)O)C(=O)N[C@@H](CCCCNC(=O)COCCOCCNC(=O)CCCCCCCCCCCCCCC(=O)O)C(N)=O)NC(=O)[C@H](Cc2c[nH]c3ccccc23)NC(=O)[C@H](CCCNC(=N)N)NC(=O)[C@@H](Cc2ccccc2)NC(=O)[C@H](Cc2c[nH]cn2)NC1=O` [Example 42, Ac-c[Orn-His-D-Phe-Arg-Trp-Asp]-Pro-Pro-Arg-Glu-Lys(biscarboxymethyl)-Lys({2-[2-(15-carboxypentadecanoylamino)ethoxy]ethoxy}acetyl)-NH2] (Ac-[Orn]H[dF]RWDPPRE[Lys(CH2CO2H)2]K([AEEA-C16 diacid])-NH2; lactam 1-6): the solubility was 153 µM (≈ 331 µg/mL) (pH 4.9, Solubility Conc.); 240 µM (≈ 519 µg/mL) (pH 5.8, Solubility Conc.); 364 µM (≈ 787 µg/mL) (pH 6.4, Solubility Conc.); 421 µM (≈ 910 µg/mL) (pH 6.7, Solubility Conc.); 449 µM (≈ 971 µg/mL) (pH 7, Solubility Conc.); 438 µM (≈ 947 µg/mL) (pH 7.2, Solubility Conc.). The molecule also came in with a solubility (pH 7.5, Solubility Conc.) of 441 µM (≈ 954 µg/mL); a solubility (pH 7.9, Solubility Conc.) of 476 µM (≈ 1030 µg/mL); a solubility (pH 8.1, Solubility Conc.) of 417 µM (≈ 902 µg/mL).
Take `CC(=O)N[C@H]1CCC(=O)NCCC[C@@H](C(=O)N2CCC[C@H]2C(=O)N2CCC[C@H]2C(=O)N[C@@H](Cc2c[nH]cn2)C(=O)N[C@@H](CC(=O)O)C(=O)N[C@@H](CCCCN(CC(=O)O)CC(=O)O)C(=O)N[C@@H](CCCCNC(=O)COCCOCCNC(=O)CCCCCCCCCCCCCCCc2nnn[nH]2)C(N)=O)NC(=O)[C@H](Cc2c[nH]c3ccccc23)NC(=O)[C@H](CCCNC(=N)N)NC(=O)[C@@H](Cc2ccccc2)NC(=O)[C@H](Cc2c[nH]cn2)NC1=O` [Example 43, Ac-c[Glu-His-D-Phe-Arg-Trp-Orn]-Pro-Pro-His-Asp-Lys(biscarboxymethyl)-Lys[(2-{2-[16-(tetrazol-5-yl)hexadecanoylamino]ethoxy}ethoxy)acetyl]-NH2] (Ac-EH[dF]RW[Orn]PPHD[Lys(CH2CO2H)2]K([AEEA-Palmitoyl(16-(5-tetrazolyl))])-NH2; lactam 1-6): the solubility was 27 µM (≈ 58.9 µg/mL) (pH 5.9, Solubility Conc.); 75 µM (≈ 164 µg/mL) (pH 6.5, Solubility Conc.); 315 µM (≈ 687 µg/mL) (pH 6.7, Solubility Conc.); 478 µM (≈ 1040 µg/mL) (pH 6.8, Solubility Conc.); 478 µM (≈ 1040 µg/mL) (pH 7.2, Solubility Conc.); 506 µM (≈ 1100 µg/mL) (pH 7.4, Solubility Conc.). Further, the solubility reads like this: (pH 7.7, Solubility Conc.) 487 µM (≈ 1060 µg/mL); (pH 7.9, Solubility Conc.) 490 µM (≈ 1070 µg/mL); (pH 8.1, Solubility Conc.) 493 µM (≈ 1080 µg/mL).
`CC(=O)N[C@H]1CCCNC(=O)C[C@@H](C(=O)N2CCC[C@H]2C(=O)N2CCC[C@H]2C(=O)N[C@@H](Cc2c[nH]cn2)C(=O)N[C@@H](CCC(=O)O)C(=O)N[C@@H](CCCCN(CC(=O)O)CC(=O)O)C(=O)N[C@@H](CCCCNC(=O)COCCOCCNC(=O)CCCCCCCCCCCCCCCCC(=O)O)C(N)=O)NC(=O)[C@H](Cc2c[nH]c3ccccc23)NC(=O)[C@H](CCCNC(=N)N)NC(=O)[C@@H](Cc2ccccc2)NC(=O)[C@H](Cc2c[nH]cn2)NC1=O` [Example 46, Ac-c[Orn-His-D-Phe-Arg-Trp-Asp]-Pro-Pro-His-Glu-Lys(biscarboxymethyl)-Lys({2-[2-(17-carboxyheptadecanoylamino)ethoxy]ethoxy}acetyl)-NH2] (Ac-[Orn]H[dF]RWDPPHE[Lys(CH2CO2H)2]K([AEEA-C18 diacid])-NH2; lactam 1-6) registered a solubility (pH 5, Solubility Conc.) of 25 µM (≈ 54.3 µg/mL); a solubility (pH 5.4, Solubility Conc.) of 24 µM (≈ 52.1 µg/mL); a solubility (pH 6.1, Solubility Conc.) of 47 µM (≈ 102 µg/mL); a solubility (pH 6.6, Solubility Conc.) of 160 µM (≈ 347 µg/mL); a solubility (pH 6.7, Solubility Conc.) of 422 µM (≈ 916 µg/mL); a solubility (pH 6.8, Solubility Conc.) of 471 µM (≈ 1020 µg/mL). The solubility came out at 494 µM (≈ 1070 µg/mL) (pH 7.1, Solubility Conc.); 509 µM (≈ 1110 µg/mL) (pH 7.6, Solubility Conc.); 507 µM (≈ 1100 µg/mL) (pH 7.8, Solubility Conc.).
`CC(=O)N[C@H]1CNC(=O)CC[C@@H](C(=O)N2CCC[C@H]2C(=O)N2CCC[C@H]2C(=O)N[C@@H](CCCNC(=N)N)C(=O)N[C@@H](CC(=O)O)C(=O)N[C@@H](CCCCN(CC(=O)O)CC(=O)O)C(=O)N[C@@H](CCCCNC(=O)COCCOCCNC(=O)CCCCCCCCCCCCCCCc2nnn[nH]2)C(N)=O)NC(=O)[C@H](Cc2c[nH]c3ccccc23)NC(=O)[C@H](CCCNC(=N)N)NC(=O)[C@@H](Cc2ccccc2)NC(=O)[C@H](Cc2c[nH]cn2)NC1=O` [Example 47, Ac-c[Dap-His-D-Phe-Arg-Trp-Glu]-Pro-Pro-Arg-Asp-Lys(biscarboxymethyl)-Lys[(2-{2-[16-(tetrazol-5-yl)hexadecanoylamino]ethoxy}ethoxy)acetyl]-NH2] (Ac-[Dap]H[dF]RWEPPRD[Lys(CH2CO2H)2]K([AEEA-Palmitoyl(16-(5-tetrazolyl))])-NH2; lactam 1-6) displayed a solubility (pH 6.4, Solubility Conc.) of 24 µM (≈ 52.1 µg/mL); a solubility (pH 6.9, Solubility Conc.) of 56 µM (≈ 122 µg/mL); a solubility (pH 7.1, Solubility Conc.) of 103 µM (≈ 224 µg/mL); a solubility (pH 7.2, Solubility Conc.) of 219 µM (≈ 476 µg/mL); a solubility (pH 7.3, Solubility Conc.) of 366 µM (≈ 795 µg/mL); a solubility (pH 7.5, Solubility Conc.) of 379 µM (≈ 823 µg/mL). The same molecule yielded a solubility (pH 7.6, Solubility Conc.) of 371 µM (≈ 806 µg/mL) and a solubility (pH 7.9, Solubility Conc.) of 493 µM (≈ 1070 µg/mL).
